The values that follow come from patent US8093406B2, “Cyclic sulfones with aminobenzyl substitution useful as BACE inhibitors” (Novartis AG, priority 2008, dated 2012).

Counter-ions that a name gives are not always drawn.

T1 sequence (P56817 46-457 limits assumed): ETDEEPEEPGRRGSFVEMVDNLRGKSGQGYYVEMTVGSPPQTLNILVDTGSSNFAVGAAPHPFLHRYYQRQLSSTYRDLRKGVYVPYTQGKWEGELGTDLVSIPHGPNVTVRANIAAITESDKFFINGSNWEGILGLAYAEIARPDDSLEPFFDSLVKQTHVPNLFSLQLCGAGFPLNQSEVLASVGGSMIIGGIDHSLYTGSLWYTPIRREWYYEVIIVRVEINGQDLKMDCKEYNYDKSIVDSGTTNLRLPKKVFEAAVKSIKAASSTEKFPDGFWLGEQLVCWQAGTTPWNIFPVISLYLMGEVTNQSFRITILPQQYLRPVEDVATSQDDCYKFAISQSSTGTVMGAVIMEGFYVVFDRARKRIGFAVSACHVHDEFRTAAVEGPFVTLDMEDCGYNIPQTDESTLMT

One assay concerns the target T1, Human BACE (Homo sapiens, UniProt P56817).
T1 construct: Recombinant BACE (extracellular domain, expressed in baculovirus and purified using standard methods); made in house
Kind of assay: Test 1: Inhibition of Human BACE. The class given is biochemical.
Settings: not given
As to the method: Test 1: Inhibition of Human BACE
Recombinant BACE (extracellular domain, expressed in baculovirus and purified using standard methods) at 0.1 to 10 nM concentrations is incubated with the test compound at various concentrations for 1 hour at room temperature in 10 to 100 mM acetate buffer, pH 4.5, containing 0.1% CHAPS. […] IC50 values are calculated from percentage of inhibition of BACE-activity as a function of the test compound concentration.
Regarding `COC[C@@H](Oc1cc(C[C@@H]2C[S@@+]([O-])C[C@H](NCc3cccc(C(C)(C)C)c3)C2=O)cc(F)c1N)C(F)(F)F` [Example 64, (1R,3S,5R)-3-[4-Amino-3-fluoro-5-((R)-2,2,2-trifluoro-1-methoxymethyl-ethoxy)-benzyl]-5-(3-tert-butyl-benzylamino)-1-oxo-tetrahydro-thiopyran-4-one trifluoroacetate], the IC50 is 4 nM.

Staying with this assay, now noted: Test 1; recombinant BACE extracellular domain, acetate buffer pH 4.5, 1 hour incubation at room temperature, fluorescence-quenched APP-derived peptide substrate; read-out: Bace IC50.
For `CCNCC(=O)Nc1c(F)cc(C[C@@H]2CS(=O)(=O)C[C@H](NCc3cccc(C(C)(C)C)c3)[C@H]2O)cc1CC` [Example 8, N-{4-[(3S,4S,5R)-5-(3-tert-Butyl-benzylamino)-4-hydroxy-1,1-dioxo-hexahydro-1lambda*6*-thiopyran-3-ylmethyl]-2-ethyl-6-fluoro-phenyl}-2-ethylamino-acetamide dihydrochloride], the IC50 came out at 42 nM.
The same measure, in the same setting: to `CC(C)(C)c1cccc(CN[C@H]2CS(=O)(=O)C[C@@H](Cc3cc(F)c(NC(=O)CNC4CC4)c(Cl)c3)[C@@H]2O)c1` [Example 14, N-{4-[(3S,4S,5R)-5-(3-tert-butyl-benzylamino)-4-hydroxy-1,1-dioxo-hexa-hydro-1lambda*6*-thiopyran-3-ylmethyl]-2-chloro-6-fluoro-phenyl}-2-cyclopropylamino-acetamide] belongs 22 nM; to `CCNC(=O)c1cc(CC2CS(=O)(=O)CC(NCc3cccc(C(C)(C)C)c3)C2O)ccc1N` (stereo not drawn) [Example 19], 26 nM.
Take `COCC(Oc1cc(CC2C[S+]([O-])CC(NCc3cccc(OC)c3)C2O)cc(F)c1N)C(F)(F)F` (stereo not drawn) [Example 59]: the IC50 was 384 nM.
Still for that read-out and setting: in the case of `CC(C)(C)NCC(=O)Nc1c(F)cc(C[C@@H]2CS(=O)(=O)C[C@H](NCc3cccc(C(C)(C)C)c3)[C@H]2O)cc1Cl` [Example 15] it was 50 nM; in that of `COC[C@@H](Oc1cc(C[C@@H]2C[S@@+]([O-])C[C@H](NCc3ccc4c(c3)OC(C)(C)C4)[C@H]2O)cc(F)c1N)C(F)(F)F` [Example 50, (1R,3S,4S,5R)-3-[4-Amino-3-fluoro-5-((R)-2,2,2-trifluoro-1-methoxymethyl-ethoxy)-benzyl]-5-[(2,2-dimethyl-2,3-dihydro-benzofuran-6-ylmethyl)-amino]-1-oxo-tetrahydro-thiopyran-4-ol dihydrochloride], 2400 nM; in that of `COC[C@@H](Oc1cc(C[C@@H]2C[S@@+]([O-])C[C@H](NCc3cc(OC)cc(C(C)(C)C)c3)[C@H]2O)cc(F)c1N)C(F)(F)F` [Example 49, (1R,3S,4S,5R)-3-[4-Amino-3-fluoro-5-((R)-2,2,2-trifluoro-1-methoxymethyl-ethoxy)-benzyl]-5-(3-tert-butyl-5-methoxy-benzylamino)-1-oxo-tetrahydro-thiopyran-4-ol dihydrochloride], 15 nM.
The same measure, in the same setting: in the case of `CC(C)(C)c1cccc(CNC2CS(=O)(=O)CC(Cc3ccc(N)c(C(=O)NCCF)c3)C2O)c1` (stereo not drawn) [Example 22] it was 46 nM.
Same read-out and setting: in the case of `CCCNC(=O)c1cc(CC2CS(=O)(=O)CC(NCc3cccc(C(C)(C)C)c3)C2O)ccc1N` (stereo not drawn) [Example 20] it was 151 nM.
Take `COC[C@@H](Oc1cc(C[C@@H]2C[S+]([O-])C[C@H](NCc3cccc(C4(C)CC4)c3)[C@H]2O)cc(F)c1N)C(F)(F)F` (stereo partly drawn) [Example 43, (3S,4S,5R)-3-[4-Amino-3-fluoro-5-((R)-2,2,2-trifluoro-1-methoxymethyl-ethoxy)-benzyl]-5-[3-(1-methyl-cyclopropyl)-benzylamino]-1-oxo-hexahydro-1lambda*4*-thiopyran-4-ol hydrochloride]: the IC50 worked out at 10 nM.
The same measure, in the same setting: in the case of `COCC(Oc1cc(CC2C[S+]([O-])CC(NCc3cccc(OC(F)F)c3)C2O)cc(F)c1N)C(F)(F)F` (stereo not drawn) [Example 62] it was 334 nM.
Turning to `CC(C)(C)c1cccc(CNC2CS(=O)(=O)CC(Cc3ccc(N)c(C(=O)NCC4CC4)c3)C2O)c1` (stereo not drawn) [Example 21], the IC50 was found to be 8 nM.
Take `C[Si](C)(C)c1cccc(CNC2C[S+]([O-])CC(Cc3cc(F)c(N)c(OCC(F)(F)F)c3)C2O)c1` (stereo not drawn) [Example 63]: the IC50 was found to be 118 nM.
Same read-out and setting: in the case of `CCNCC(=O)Nc1c(F)cc(C[C@@H]2CS(=O)(=O)C[C@H](NCc3cccc(C(C)(C)C)c3)[C@H]2O)cc1OCC(F)(F)F` [Example 27] it was 3 nM; in that of `CNCC(=O)Nc1c(F)cc(C[C@@H]2CS(=O)(=O)C[C@H](NCc3cccc(C(C)(C)C)c3)[C@H]2O)cc1Cl` [Example 13], 28 nM; in that of `CC(C)(C)c1cccc(CN[C@H]2CS(=O)(=O)C[C@@H](Cc3cc(F)c(N)c(N4CCC4=O)c3)[C@@H]2O)c1` (relative stereo) [Example 5, 1 {2-Amino-5-[(3S*,4S*,5R*)-5-(3-tert-butyl-benzylamino)-4-hydroxy-1,1-dioxo-hexahydro-1lambda*6*-thiopyran-3-ylmethyl]-3-fluoro-phenyl}-azetidin-2-one], 4700 nM.
Turning to `CN(C)CC(=O)Nc1c(F)cc(C[C@@H]2CS(=O)(=O)C[C@H](NCc3cccc(C(C)(C)C)c3)[C@H]2O)cc1OCC(F)(F)F` [Example 26, N-[4-[(3S,4S,5R)-5-(3-tert-Butyl-benzylamino)-4-hydroxy-1,1-dioxo-hexahydro-1lambda*6*-thiopyran-3-ylmethyl]-2-fluoro-6-(2,2,2-trifluoro-ethoxy)-phenyl]-2-dimethylamino-acetamide dihydrochloride], the concentration for half-maximal inhibition (IC50) worked out at 7 nM.
Same read-out and setting: in the case of `CC(C)(C)c1cccc(CN[C@H]2CS(=O)(=O)C[C@@H](Cc3cc(F)c(N)c(O[C@H](CO)C(F)(F)F)c3)[C@@H]2O)c1` [Example 38, (3S,4S,5R)-3-[4-Amino-3-fluoro-5-((R)-2,2,2-trifluoro-1-hydroxymethyl-ethoxy)-benzyl]-5-(3-tert-butyl-benzylamino)-1,1-dioxo-hexahydro-1lambda*6*-thio-pyran-4-ol] it was 3 nM; in that of `CC(C)(C)c1cccc(CN[C@H]2CS(=O)(=O)C[C@@H](Cc3cc(F)c(NC(=O)CN4CCCCC4)c(OCC(F)(F)F)c3)[C@@H]2O)c1` [Example 29], 5 nM; in that of `COC[C@@H](Oc1cc(C[C@@H]2CSC[C@H](NCc3cccc(C(C)(C)C)c3)[C@H]2O)cc(F)c1N)C(F)(F)F` [Example 40, (3S,4S,5R)-3-[4-Amino-3-fluoro-5-((R)-2,2,2-trifluoro-1-methoxymethyl-ethoxy)-benzyl]-5-(3-tert-butyl-benzylamino)-tetrahydro-thiopyran-4-ol hydrochloride], 247 nM.
The same measure, in the same setting: in the case of `CCc1cc(C[C@@H]2CS(=O)(=O)C[C@H](NCc3cccc(C(C)(C)C)c3)[C@H]2O)cc(F)c1NC(=O)COC` [Example 10, N-{4-[(3S,4S,5R)-5-(3-tert-Butyl-benzylamino)-4-hydroxy-1,1-dioxo-hexa-hydro-1lambda*6*-thiopyran-3-ylmethyl]-2-ethyl-6-fluoro-phenyl}-2-methoxy-acetamide hydrochloride] it was 48 nM; in that of `COC[C@@H](Oc1cc(C[C@@H]2C[S@@+]([O-])C[C@H](NCc3cccc(C(C)(C)C(F)(F)F)c3)[C@H]2O)cc(F)c1N)C(F)(F)F` [Example 44, (1R,3S,4S,5R)-3-[4-Amino-3-fluoro-5-((R)-2,2,2-trifluoro-1-methoxymethyl-ethoxy)-benzyl]-1-oxo-5-[3-(2,2,2-trifluoro-1,1-dimethyl-ethyl)-benzylamino]-tetrahydro-thiopyran-4-ol], 27 nM; in that of `CCNCC(=O)Nc1c(F)cc(C[C@@H]2CS(=O)(=O)C[C@H](NCc3cccc(C(C)(C)C)c3)[C@H]2O)cc1Cl` [Example 12], 20 nM.

A word on the IC50: it is the point on the concentration scale where inhibition reaches its midpoint.
